Assay results published in US20010041346A1, “METHOD FOR ASSAYING COMPOUNDS AFFECTING SMOOTH MUSCLE CONTRACTILE STATE” (priority 1999, published 2001).

Assays:
[1] = system: myosin light chain phosphorylation in rat aortic smooth muscle cells; assay: Agonist-stimulated myosin light chain phosphorylation in intact vascular smooth muscle cells; type: cell-based; conditions: n=3
Source text: The extent of agonist-stimulated myosin light chain phosphorylation was quantified in intact vascular smooth muscle cells transfected with either vector alone or a plasmid expressing the cGK1α leucine/isoleucine zipper domain (CGK1-59), to examine the effects of disrupting the cGK1α-MBS interaction on cGMP-mediated inhibition of myosin light chain phosphorylation. cGK1α1-59 was cloned into the mammalian expression vector pCI (Promega, Madison, Wis.). Rat aortic smooth muscle cells of passage 6 through 10 were transfected with either vector alone (pCI) or cDNA for the leucine/isoleucine zipper peptide from cGK (cGK1α1-59pCI) by electroporation. Cells were arrested in DME supplemented with insulin, ascorbic acid and transferrin, then stimulated with 2 μM of the thromboxane analogue U46619 for 1 minute in the absence or presence of 20 minute pretreatment with 1 mM 8-Br-cGMP. Following treatment, cells were precipitated with trichloroacetic acid, washed with acetone, and protein was subjected to glycerol-urea electrophoresis (Taylor et al., J. Biol Chem. 263, 14456, 1988). Myosin light chain phosphorylation state was quantified by immunoblotting the unphosphorylated and phosphorylated forms of myosin light chain with monoclonal antimyosin light chain antibody (Sigma, clone MY-21). Protein bands were analyzed by densitometry. Statistical analysis was performed using Student-Newman-Keuls method. Data represent the means+/−standard error of three separate experiments in duplicate.

[2] = system: PP1M; assay: Phosphatase assay in anti-MBS immunopellets; type: biochemical, human
[3] = target: T1, PP1M phosphatase activity (Homo sapiens, UniProt P62140); assay: Phosphatase assay in cGKIα immunopellets; type: biochemical
T1 construct: cGKIα was immunoprecipitated and phosphatase activity was assayed in the immunopellets as described herein; endogenous in cells; host or cells: human saphenous vein smooth muscle cells

[4] = target: T2, AL9 (carboxy-terminal 181 amino acids of MBS) (Homo sapiens, UniProt O14974); assay: Yeast two-hybrid interaction assay (HIS3 and LacZ reporter activation); type: binding; conditions: yeast strain Y190
T2 construct: expressed in transfected cells; host or cells: Saccharomyces cerevisiae Y190
T2 sequence (O14974 850-1030 limits assumed): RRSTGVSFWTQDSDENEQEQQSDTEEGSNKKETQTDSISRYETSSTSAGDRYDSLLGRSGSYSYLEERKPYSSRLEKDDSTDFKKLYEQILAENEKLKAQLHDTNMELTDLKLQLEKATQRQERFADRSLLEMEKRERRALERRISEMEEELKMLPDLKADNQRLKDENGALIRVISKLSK
Procedure: Colonies were lifted onto NitroPure nitrocellulose filters (MSI, Westboro, Mass.) which were then submerged in liquid nitrogen for 15 seconds, placed on presoaked Whatman #5 paper (in Z buffer: 60 mM Na2HPO4.7H2O, 40 mM NaH2PO4.H2O, 10 mM KCl, 1 mM MgSO4.7H2O), 50 mM β-mercaptoethanol, pH 7.0, and incubated at 37° for up to 12 hours.
Polypeptides interacting with cGK-PC97 were detected by their ability to activate transcription of histidine (HIS3) and β-galactosidase (LacZ) reporter genes via reconstitution of the Gal4 transcription factor. MaV103 colonies capable of growing on media lacking histidine were assayed for β-galactosidase activity using the colony-lift filter assay, according to standard techniques and as described herein. PC86 plasmids (containing the activated T cell library) from His3+, LacZ+ colonies were isolated and the library cDNA insert sequenced. 2.5×10^6 clones were screened from the T cell library.
To verify the interaction of AL9 with cGK1α, individual plasmids were introduced into S. cerevisiae strain Y190 (Clontech, Palo Alto, Calif.) by the lithium acetate method and assayed for reporter gene activation, as above. Y190 was transformed with cGK1α/GalDB or GalDB alone, in combination with AL9/GalAD or GalAD alone, and plated on Sc-His (synthetic complete medium, minus histidine) and YPD (yeast extract, peptone, dextrose) plates. β-galactosidase activity assays, on colonies from the YPD plate, were also performed. […] Thus, cotransformation of AL9 and cGK1α into S. cerevisiae confirmed the interaction of full-length cGK1α with the carboxy-terminal 181 amino acids of MBS.
Yeast strain Y190 was transformed with AL9/GalAD in combination with the cGK1α/GalDB truncation mutants and plated on YPD and Sc-His plates. Colony lift β-Galactosidase assays for the yeast colonies growing on the YPD plate were also performed. […] Thus, the C-terminus of MBS (AL9) interacts with the N-terminus of cGK1α (cGK1α1-59).
Site-directed mutagenesis was employed to replace selected leucine or isoleucine residues in the N-terminus of cGKIα. cGK1α1-59 was cloned into vector pcDNA3.1 (Invitrogen, Carlsbad, Calif.) using the method of Kunkel et al. (Kunkel et al., Methods in Enzymology, 154: 367-382, 1987). Three mutants of the leucine/isoleucine zipper of cGKIα were prepared: Leu12 and Ile19 to Ala (cGKLLZ1,2A); Leu26 to Pro (cGKLZ3P); Ile33 and Leu40 to Ala (cGKLZ4,5A). All mutants were confirmed by DNA sequencing, then subcloned into vector PC97 for expression in yeast. cGKLz1,2A, GKLZ3P, and GKLZ4,5A were each cotransformed with AL9 in yeast strain Y190 , and reporter gene activation assayed as described herein.

T1 sequence (P62140 whole entry): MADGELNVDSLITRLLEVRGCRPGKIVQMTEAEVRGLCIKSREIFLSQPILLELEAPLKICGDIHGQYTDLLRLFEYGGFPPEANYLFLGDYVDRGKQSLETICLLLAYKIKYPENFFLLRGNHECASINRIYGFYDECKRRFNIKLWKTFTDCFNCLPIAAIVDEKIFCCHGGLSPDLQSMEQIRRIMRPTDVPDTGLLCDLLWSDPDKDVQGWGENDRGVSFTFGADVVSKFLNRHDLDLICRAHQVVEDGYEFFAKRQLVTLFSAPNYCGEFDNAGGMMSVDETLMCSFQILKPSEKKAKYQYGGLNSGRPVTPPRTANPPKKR
T1 sequence (O14974 whole entry partner): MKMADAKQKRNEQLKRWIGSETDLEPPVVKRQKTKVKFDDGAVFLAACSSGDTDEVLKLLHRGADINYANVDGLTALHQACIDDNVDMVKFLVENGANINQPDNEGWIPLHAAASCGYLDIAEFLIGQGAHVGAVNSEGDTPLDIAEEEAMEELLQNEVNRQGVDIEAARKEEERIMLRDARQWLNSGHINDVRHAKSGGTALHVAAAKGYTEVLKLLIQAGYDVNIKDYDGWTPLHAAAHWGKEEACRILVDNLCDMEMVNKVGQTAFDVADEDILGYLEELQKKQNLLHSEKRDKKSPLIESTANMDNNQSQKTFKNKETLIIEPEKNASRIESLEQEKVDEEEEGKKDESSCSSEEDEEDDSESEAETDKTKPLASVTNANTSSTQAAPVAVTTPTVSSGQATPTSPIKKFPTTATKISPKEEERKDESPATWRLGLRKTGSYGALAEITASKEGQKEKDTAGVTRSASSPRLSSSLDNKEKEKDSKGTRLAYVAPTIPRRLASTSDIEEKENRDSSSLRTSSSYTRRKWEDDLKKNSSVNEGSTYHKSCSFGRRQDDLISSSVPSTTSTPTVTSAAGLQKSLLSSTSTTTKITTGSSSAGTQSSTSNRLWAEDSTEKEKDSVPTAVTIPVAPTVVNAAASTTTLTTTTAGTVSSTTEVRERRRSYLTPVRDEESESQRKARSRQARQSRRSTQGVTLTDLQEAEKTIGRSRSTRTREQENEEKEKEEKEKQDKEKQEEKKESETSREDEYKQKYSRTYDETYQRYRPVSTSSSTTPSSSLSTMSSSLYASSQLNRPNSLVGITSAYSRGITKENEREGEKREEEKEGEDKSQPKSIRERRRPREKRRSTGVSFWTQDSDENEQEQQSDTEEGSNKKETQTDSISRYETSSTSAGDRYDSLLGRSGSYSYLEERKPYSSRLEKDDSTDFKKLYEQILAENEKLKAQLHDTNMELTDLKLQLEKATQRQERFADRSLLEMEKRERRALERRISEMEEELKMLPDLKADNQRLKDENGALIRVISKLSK
T1 sequence (Q13976 whole entry partner): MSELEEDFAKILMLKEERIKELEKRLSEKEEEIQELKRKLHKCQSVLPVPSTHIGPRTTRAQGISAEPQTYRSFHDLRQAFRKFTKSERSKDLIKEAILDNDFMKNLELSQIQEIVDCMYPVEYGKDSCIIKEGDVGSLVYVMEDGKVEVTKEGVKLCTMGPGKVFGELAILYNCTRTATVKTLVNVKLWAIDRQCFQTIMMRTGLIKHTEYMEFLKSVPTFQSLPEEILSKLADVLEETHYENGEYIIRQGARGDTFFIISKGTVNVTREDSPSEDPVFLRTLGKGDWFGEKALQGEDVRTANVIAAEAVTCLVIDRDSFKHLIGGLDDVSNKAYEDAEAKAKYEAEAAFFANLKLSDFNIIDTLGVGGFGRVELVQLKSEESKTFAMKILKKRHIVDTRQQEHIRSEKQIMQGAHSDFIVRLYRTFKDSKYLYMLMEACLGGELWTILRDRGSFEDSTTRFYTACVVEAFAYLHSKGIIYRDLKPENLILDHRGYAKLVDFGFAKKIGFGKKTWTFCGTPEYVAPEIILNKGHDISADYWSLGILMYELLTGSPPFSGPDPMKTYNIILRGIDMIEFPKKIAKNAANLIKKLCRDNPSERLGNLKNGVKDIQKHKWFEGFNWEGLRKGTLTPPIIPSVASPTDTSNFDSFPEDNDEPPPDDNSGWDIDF

Nc1nc2c(nc(Br)n2[C@@H]2O[C@@H]3COP(=O)(O)O[C@H]3[C@H]2O)c(=O)[nH]1 [8-bromo-cGMP]
inhibition of U46619-stimulated myosin light chain phosphorylation ([1]; cells expressing cGK1-59, 20 minute pretreatment with 1 mM 8-Br-cGMP): 35% | inhibition of U46619-mediated myosin light chain phosphorylation ([1]; control-transfected cells, 20 minute pretreatment with 1 mM 8-Br-cGMP): 79+/−17% | increase of PP1 phosphatase activity in the MBS immunopellet ([2]; 8-bromo-cGMP added to anti-MBS immunopellets, n=5): 32+/−13%

Nc1nc2c(nc(Sc3ccc(Cl)cc3)n2[C@@H]2O[C@@H]3CO[P@@](=O)(S)O[C@H]3[C@H]2O)c(=O)[nH]1 [Rp-8-pCPT-cGMPS]
effect on activation of PP1M by 8-bromo-cGMP ([2]; preincubation of the complex with the inhibitor, two separate experiments): prevented

CCCCC[C@H](O)/C=C/[C@@H]1[C@@H](C/C=C\CCCC(=O)O)[C@H]2CO[C@@H]1C2 [U46619]
myosin light chain phosphorylation ([1]; 2 μM U46619 for 1 minute, baseline 10+/−2%, vector control and cGK1-59-transfected cells): 68+/−2%

C=C1[C@@H](O)[C@@H]2O[C@]3(CC[C@H](/C=C/[C@@H](C)[C@@H]4CC(C)=C[C@@]5(O[C@H](C[C@@](C)(O)C(=O)O)CC[C@H]5O)O4)O3)CC[C@H]2O[C@@H]1[C@@H](O)C[C@H](C)[C@H]1O[C@@]2(CCCCO2)CC[C@H]1C [okadaic acid]
inhibition at 0.002 µM ([3]; 2 nM okadaic acid, n=3, P=NS): 12% | inhibition at 1 µM ([3]; 1 μM okadaic acid, n=3, p<0.001 vs. untreated): 79%

cGK1α1-59: cGK1α truncation mutant containing amino acids 1-59, leucine/isoleucine zipper domain (MSELEEDFAKILMLKEERIKELEKRLSEKEEEIQELKRKLHKCQSVLPVPSTHIGPRTT; isoform alpha; UniProt Q13976 1-59, looked up, fragment)
interaction with AL9/MBS in yeast two-hybrid (HIS and β-Gal reporter activation) [4]: interacted with AL9

cGKLZ1,2A: cGK1α1-59 mutant, Leu12 and Ile19 to Ala (MSELEEDFAKIAMLKEERAKELEKRLSEKEEEIQELKRKLHKCQSVLPVPSTHIGPRTT; isoform alpha; UniProt Q13976 1-59, looked up, variant L12A I19A)
interaction with AL9/MBS in yeast two-hybrid (HIS and β-Gal reporter activation) [4]: failed to interact with MBS

cGKLZ3P: cGK1α1-59 mutant, Leu26 to Pro (MSELEEDFAKILMLKEERIKELEKRPSEKEEEIQELKRKLHKCQSVLPVPSTHIGPRTT; isoform alpha; UniProt Q13976 1-59, looked up, variant L26P)
interaction with AL9/MBS in yeast two-hybrid (HIS and β-Gal reporter activation) [4]: failed to interact with MBS

cGKLZ4,5A: cGK1α1-59 mutant, Ile33 and Leu40 to Ala (MSELEEDFAKILMLKEERIKELEKRLSEKEEEAQELKRKAHKCQSVLPVPSTHIGPRTT; isoform alpha residues 1-59; UniProt Q13976 1-59, looked up, variant I33A L40A)
interaction with AL9/MBS in yeast two-hybrid (HIS and β-Gal reporter activation) [4]: weak association with MBS

B1: cGK1α68-667: cGK1α mutant corresponding to amino acids 68-667 (protein, UniProt Q13976 68-667, looked up, fragment)
chain: PQTYRSFHDLRQAFRKFTKSERSKDLIKEAILDNDFMKNLELSQIQEIVDCMYPVEYGKDSCIIKEGDVGSLVYVMEDGKVEVTKEGVKLCTMGPGKVFGELAILYNCTRTATVKTLVNVKLWAIDRQCFQTIMMRTGLIKHTEYMEFLKSVPTFQSLPEEILSKLADVLEETHYENGEYIIRQGARGDTFFIISKGTVNVTREDSPSEDPVFLRTLGKGDWFGEKALQGEDVRTANVIAAEAVTCLVIDRDSFKHLIGGLDDVSNKAYEDAEAKAKYEAEAAFFANLKLSDFNIIDTLGVGGFGRVELVQLKSEESKTFAMKILKKRHIVDTRQQEHIRSEKQIMQGAHSDFIVRLYRTFKDSKYLYMLMEACLGGELWTILRDRGSFEDSTTRFYTACVVEAFAYLHSKGIIYRDLKPENLILDHRGYAKLVDFGFAKKIGFGKKTWTFCGTPEYVAPEIILNKGHDISADYWSLGILMYELLTGSPPFSGPDPMKTYNIILRGIDMIEFPKKIAKNAANLIKKLCRDNPSERLGNLKNGVKDIQKHKWFEGFNWEGLRKGTLTPPIIPSVASPTDTSNFDSFPEDNDEPPPDDNSGW
modifications: isoform alpha
interaction with AL9/MBS in yeast two-hybrid (HIS and β-Gal reporter activation) [4]: failed to associate with AL9

B2: cGK1α68-446: cGK1α mutant corresponding to amino acids 68-446 (protein, UniProt Q13976 68-446, looked up, fragment)
chain: PQTYRSFHDLRQAFRKFTKSERSKDLIKEAILDNDFMKNLELSQIQEIVDCMYPVEYGKDSCIIKEGDVGSLVYVMEDGKVEVTKEGVKLCTMGPGKVFGELAILYNCTRTATVKTLVNVKLWAIDRQCFQTIMMRTGLIKHTEYMEFLKSVPTFQSLPEEILSKLADVLEETHYENGEYIIRQGARGDTFFIISKGTVNVTREDSPSEDPVFLRTLGKGDWFGEKALQGEDVRTANVIAAEAVTCLVIDRDSFKHLIGGLDDVSNKAYEDAEAKAKYEAEAAFFANLKLSDFNIIDTLGVGGFGRVELVQLKSEESKTFAMKILKKRHIVDTRQQEHIRSEKQIMQGAHSDFIVRLYRTFKDSKYLYMLMEACLGGEL
modifications: isoform alpha
interaction with AL9/MBS in yeast two-hybrid (HIS and β-Gal reporter activation) [4]: failed to associate with AL9
